# Patent US20050256134A1, “Use of creatine analogues and creatine kinase modulators for the prevention and treatment of glucose metabolic disorders” (AVICENA GROUP, INC., priority 1995, published 2005)
# Like-named read-outs stand apart in the source and are kept apart here.
# Tests used:
# rats = conditions: intravenous; cited from earlier work
# [1] = in vivo; cited from earlier work
# [2] = test system: female Fisher 344 rats bearing rat mammary adenocarcinoma 13762; assay: Effect of creatine compounds on glucose levels in rats bearing tumors (i.v., days 4-8 and 14-18); type: in vivo; conditions: for Glucose Levels: i.v. days 4-8 and 14-18
# Description: Two creatine compounds, creatine phosphate and cyclocreatine, were injected intravenously into tumor bearing rats, and the level of glucose in the rats was monitored. Beta guanidino propionic acid, also was administered. […] There was no specific reason for using tumor bearing rats, except convenience because the antitumor activity of these compounds also was being studied. The presence of the tumors should not have any effect on the ability of these compounds to regulate glucose levels. The rats carrying the tumors were described by us previously (see, […] et al., Cancer Chemother. Pharmacol, 35: 411-416, 1995). The schedule and dose selected in these experiments was based on prior experience working with this class of compounds as anticancer or antiviral chemotherapeutic agents. The rat mammary adenocarcinoma 13762 was implanted in the female Fisher 344 rats on day zero. The creatine compounds were administered intravenously on days 4-8 and days 14-18. The amounts used were 1 gm/kg of cyclocreatine, 0.93 gm/kg for beta guanidino propionic acid, and 2.32 gm/kg for creatine phosphate. […] Plasma glucose levels were measured at around 11 a.m., by taking a drop of blood from the animals and testing glucose levels using a commercial kit ([…] bG, Boehringer Mannheim). For animals that were treated with drugs, the treatment was around 9 a.m., and bleeding was also at around 11 a.m. To examine more closely what occurred in the above two experiments, the average readings of glucose levels from experiments one and two were taken in the following time intervals post drug treatment: Days 2-3, Days 4-8, Days 8-12, Days 14-18, Day 15 and Days 19-22.
# [3] = test system: normal animals and a model for non-insulin dependent diabetes mellitus; conditions: cited from earlier work
Molecule,Glucose Levels (rats),insulin release (rats),hypoglycemic effect [1],undesirable side effects [1],Glucose Levels ([2]; Example 1),Glucose Levels ([2]; Example 2 (repeat)),effects on glucose level ([2]; average of experiments one and two) [%],Glucose Levels ([3]; large amounts for several weeks),Glucose Levels ([3]; model for non-insulin dependent diabetes mellitus),Glucose Levels ([3]; normal animals)
N=C(N)NCCC[C@H](N)C(=O)O [Arginine],did not affect glucose levels,stimulated insulin release,–,–,–,–,–,–,–,–
Augmentin,–,–,produced hypoglycemia,hypertension and circulatory collapse,–,–,–,–,–,–
N=C(N)NCCC(=O)O [beta guanidino propionic acid],did not affect glucose levels,stimulated insulin release,–,–,Minimal changes in glucose levels,minimal effect,< 15,not to affect glucose levels,had an effect on glucose levels,not to affect glucose levels
